Reference: PubChem BioAssay AID248 (DTP/NCI, 2004)
“And” between values parts separate entries of the source, which are not always exact repeats. Equal entries are not always repeated. Inconclusive results and toxic doses are left out.

Tested on: L1210 leukemia ip in BDF1 mice, survival T/C
Assay: NCI In Vivo Anticancer Drug Screen. Data for tumor model L1210 Leukemia (intraperitoneal) in B6D2F1 (BDF1) mice
Details: endpoint: mean survival time, higher = longer survival
How it was run: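 Mice bearing the transplanted tumor received compound or vehicle. Survival of the treated group was divided by that of the vehicle-treated control group to give the ratio.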

[1] = dose: 100.0 mg/kg/injection, schedule: Q01DX001 (ip), vehicle: carboxymethylcellulose (CMC)
[2] = dose: 200.0 mg/kg/injection, schedule: Q01DX001 (ip), vehicle: carboxymethylcellulose (CMC)
[3] = dose: 400.0 mg/kg/injection, schedule: Q01DX001 (ip), vehicle: carboxymethylcellulose (CMC)
[4] = dose: 100.0 mg/kg/injection, schedule: Q04DX003 (ip), vehicle: Klucel (hydroxypropylcellulose) (HPC)
[5] = dose: 200.0 mg/kg/injection, schedule: Q04DX003 (ip), vehicle: Klucel (hydroxypropylcellulose) (HPC)
[6] = dose: 400.0 mg/kg/injection, schedule: Q04DX003 (ip), vehicle: Klucel (hydroxypropylcellulose) (HPC)
[7] = dose: 100.0 mg/kg/injection, schedule: Q01DX001 (ip), vehicle: saline
[8] = dose: 200.0 mg/kg/injection, schedule: Q01DX001 (ip), vehicle: saline
[9] = dose: 400.0 mg/kg/injection, schedule: Q01DX001 (ip), vehicle: saline

For `O=C1c2ccccc2-c2ccc(N=C(NO)C(F)(F)F)cc21`, the T/C [1] was 118 % of control, the T/C [2] was 98 % of control and the T/C [3] was 98 % of control.
For `N=C(N)Sc1cc(O)ccc1O`, the T/C (dose: 50.0 mg/kg/injection, schedule: Q01DX009 (ip), vehicle: saline) was 94 % of control, the T/C (dose: 100.0 mg/kg/injection, schedule: Q01DX009 (ip), vehicle: saline) was 93 % of control and the T/C (dose: 100.0 mg/kg/injection, schedule: Q04DX003 (ip), vehicle: alcohol) was 102 % of control. The T/C (dose: 200.0 mg/kg/injection, schedule: Q01DX009 (ip), vehicle: saline) was 96 % of control and the T/C (dose: 200.0 mg/kg/injection, schedule: Q04DX003 (ip), vehicle: alcohol) was 104 % of control.
In the case of `O=Cc1ccccc1OCCCC[P+](c1ccccc1)(c1ccccc1)c1ccccc1`, the T/C (dose: 5.0 mg/kg/injection, schedule: Q01DX001 (ip), vehicle: saline) is reported as 111 % of control, the T/C (dose: 10.0 mg/kg/injection, schedule: Q01DX001 (ip), vehicle: saline) is reported as 107 % of control and the T/C (dose: 20.0 mg/kg/injection, schedule: Q01DX001 (ip), vehicle: saline) is reported as 102 % of control.
`COc1ccc(Cl)cc1NC(=O)N(CCCl)N=O` was tested, and the T/C (dose: 0.1 mg/kg/injection, schedule: Q01DX009 (ip), vehicle: carboxymethylcellulose (CMC)) was 103 % of control, the T/C (dose: 1.0 mg/kg/injection, schedule: Q01DX001 (ip), vehicle: carboxymethylcellulose (CMC)) was 122 % of control and the T/C (dose: 1.0 mg/kg/injection, schedule: Q01DX009 (ip), vehicle: Klucel (hydroxypropylcellulose) (HPC)) was 105 % of control. For the same molecule, the T/C (dose: 2.0 mg/kg/injection, schedule: Q01DX001 (ip), vehicle: carboxymethylcellulose (CMC)) was 117 % of control, the T/C (dose: 2.12 mg/kg/injection, schedule: Q01DX001 (ip), vehicle: Klucel (hydroxypropylcellulose) (HPC)) was 117 % of control and the T/C (dose: 4.25 mg/kg/injection, schedule: Q01DX001 (ip), vehicle: Klucel (hydroxypropylcellulose) (HPC)) was 119 % of control. For the same molecule, the T/C (dose: 5.0 mg/kg/injection, schedule: Q01DX009 (ip), vehicle: Klucel (hydroxypropylcellulose) (HPC)) was 105 % of control, the T/C (dose: 6.0 mg/kg/injection, schedule: Q01DX009 (ip), vehicle: carboxymethylcellulose (CMC)) was 153 % of control and the T/C (dose: 8.8 mg/kg/injection, schedule: Q01DX009 (ip), vehicle: carboxymethylcellulose (CMC)) was 166 % of control. For the same molecule, the T/C (dose: 15.0 mg/kg/injection, schedule: Q01DX001 (ip), vehicle: carboxymethylcellulose (CMC)) was 151 % of control, the T/C (dose: 17.0 mg/kg/injection, schedule: Q01DX001 (ip), vehicle: Klucel (hydroxypropylcellulose) (HPC)) was 158 % of control and the T/C (dose: 17.0 mg/kg/injection, schedule: Q01DX009 (ip), vehicle: Klucel (hydroxypropylcellulose) (HPC)) was 174 % of control. The T/C (dose: 20.0 mg/kg/injection, schedule: Q01DX009 (ip), vehicle: carboxymethylcellulose (CMC)) was 100 % of control, the T/C (dose: 26.0 mg/kg/injection, schedule: Q01DX001 (ip), vehicle: carboxymethylcellulose (CMC)) was 151 % of control and 196 % of control and the T/C (dose: 26.0 mg/kg/injection, schedule: Q01DX009 (ip), vehicle: Klucel (hydroxypropylcellulose) (HPC)) was 87 % of control. The T/C (dose: 30.0 mg/kg/injection, schedule: Q01DX001 (ip), vehicle: carboxymethylcellulose (CMC)) was 151 % of control, the T/C (dose: 30.0 mg/kg/injection, schedule: Q01DX009 (ip), vehicle: carboxymethylcellulose (CMC)) was 98 % of control and the T/C (dose: 40.0 mg/kg/injection, schedule: Q01DX001 (ip), vehicle: carboxymethylcellulose (CMC)) was 93 % of control. For the same molecule, the T/C (dose: 75.0 mg/kg/injection, schedule: Q01DX001 (ip), vehicle: carboxymethylcellulose (CMC)) was 95 % of control.
For `Nc1cc2c(cc1Br)-c1ccc([N+](=O)[O-])cc1/C2=N\O`, the T/C [1] was 113 % of control, the T/C [2] was 103 % of control and the T/C [3] was 97 % of control.
In the case of `N#CC(Nc1ccccc1)c1ccccc1` (stereo not given), the T/C (dose: 100.0 mg/kg/injection, schedule: Q01DX009 (ip), vehicle: Klucel (hydroxypropylcellulose) (HPC)) is reported as 91 % of control, the T/C [4] is reported as 97 % of control and the T/C (dose: 200.0 mg/kg/injection, schedule: Q01DX009 (ip), vehicle: Klucel (hydroxypropylcellulose) (HPC)) is reported as 96 % of control. The T/C [5] was 95 % of control and the T/C [6] was 104 % of control.
`CCOC(=O)c1cnc(SC)nc1Nc1ccccc1N` was tested, and the T/C (dose: 50.0 mg/kg/injection, schedule: Q01DX001 (ip), vehicle: Klucel (hydroxypropylcellulose) (HPC)) was 94 % of control, the T/C (dose: 100.0 mg/kg/injection, schedule: Q01DX001 (ip), vehicle: Klucel (hydroxypropylcellulose) (HPC)) was 94 % of control and the T/C (dose: 200.0 mg/kg/injection, schedule: Q01DX001 (ip), vehicle: Klucel (hydroxypropylcellulose) (HPC)) was 101 % of control.
For `CC(C)(C)c1ccccc1OC(=O)Nc1ccc(F)cc1`, the T/C [1] was 98 % of control, the T/C (dose: 100.0 mg/kg/injection, schedule: Q01DX009 (ip), vehicle: carboxymethylcellulose (CMC)) was 95 % of control and 97 % of control and the T/C (dose: 100.0 mg/kg/injection, schedule: Q04DX002 (ip), vehicle: carboxymethylcellulose (CMC)) was 94 % of control and 96 % of control and 106 % of control. The T/C (dose: 100.0 mg/kg/injection, schedule: Q04DX003 (ip), vehicle: carboxymethylcellulose (CMC)) was 97 % of control, the T/C [2] was 104 % of control and the T/C (dose: 200.0 mg/kg/injection, schedule: Q01DX009 (ip), vehicle: carboxymethylcellulose (CMC)) was 105 % of control. The T/C (dose: 200.0 mg/kg/injection, schedule: Q04DX002 (ip), vehicle: carboxymethylcellulose (CMC)) was 97 % of control and 98 % of control (2×), the T/C (dose: 200.0 mg/kg/injection, schedule: Q04DX003 (ip), vehicle: carboxymethylcellulose (CMC)) was 97 % of control and the T/C [3] was 101 % of control. For the same molecule, the T/C (dose: 400.0 mg/kg/injection, schedule: Q01DX009 (ip), vehicle: carboxymethylcellulose (CMC)) was 103 % of control, the T/C (dose: 400.0 mg/kg/injection, schedule: Q04DX002 (ip), vehicle: carboxymethylcellulose (CMC)) was 92 % of control and 94 % of control and 98 % of control and the T/C (dose: 400.0 mg/kg/injection, schedule: Q04DX003 (ip), vehicle: carboxymethylcellulose (CMC)) was 91 % of control.
`N#[N+]c1c([O-])[nH]c(=S)[nH]c1=O` was tested, and the T/C (dose: 100.0 mg/kg/injection, schedule: Q01DX009 (ip), vehicle: acetone) was 92 % of control, the T/C (dose: 100.0 mg/kg/injection, schedule: Q04DX003 (ip), vehicle: acetone) was 100 % of control and the T/C (dose: 200.0 mg/kg/injection, schedule: Q01DX009 (ip), vehicle: acetone) was 96 % of control. The T/C (dose: 200.0 mg/kg/injection, schedule: Q04DX003 (ip), vehicle: acetone) was 103 % of control, the T/C (dose: 400.0 mg/kg/injection, schedule: Q01DX009 (ip), vehicle: acetone) was 88 % of control and the T/C (dose: 400.0 mg/kg/injection, schedule: Q04DX003 (ip), vehicle: acetone) was 94 % of control.
For `O=C(Cc1ccccc1)Nc1ccc(Cl)cc1C(=O)c1ccccc1`, the T/C (dose: 100.0 mg/kg/injection, schedule: Q04DX002 (ip), vehicle: saline) was 101 % of control, the T/C (dose: 200.0 mg/kg/injection, schedule: Q04DX002 (ip), vehicle: saline) was 93 % of control and the T/C (dose: 400.0 mg/kg/injection, schedule: Q04DX002 (ip), vehicle: saline) was 90 % of control.
`O/N=C(/CBr)c1ccccc1` was tested, and the T/C (dose: 12.5 mg/kg/injection, schedule: Q04DX002 (ip), vehicle: gum acacia) was 109 % of control, the T/C (dose: 25.0 mg/kg/injection, schedule: Q04DX002 (ip), vehicle: gum acacia) was 87 % of control and the T/C (dose: 50.0 mg/kg/injection, schedule: Q04DX002 (ip), vehicle: gum acacia) was 102 % of control.
With `O=[N+]([O-])c1cccc2c1C1c3ccccc3C2c2ccccc21` the T/C (dose: 50.0 mg/kg/injection, schedule: Q01DX001 (ip), vehicle: carboxymethylcellulose (CMC)) was 93 % of control, the T/C [1] was 93 % of control and the T/C [2] was 96 % of control. The T/C [3] was 96 % of control.
`C=CCSCn1ncc2ccc([N+](=O)[O-])cc21` was tested, and the T/C [7] was 94 % of control, the T/C [8] was 92 % of control and the T/C [9] was 96 % of control.
With `CC1CN(C(=N)C#N)C(C)CN1C(=N)C#N` (stereo not given) the T/C (dose: 100.0 mg/kg/injection, schedule: Q01DX009 (ip), vehicle: saline with Tween-80) was 92 % of control, the T/C (dose: 100.0 mg/kg/injection, schedule: Q04DX003 (ip), vehicle: saline with Tween-80) was 109 % of control and the T/C (dose: 200.0 mg/kg/injection, schedule: Q04DX003 (ip), vehicle: saline with Tween-80) was 104 % of control.
For `O=CNc1ncn[nH]1`, the T/C (dose: 50.0 mg/kg/injection, schedule: Q01DX001 (ip), vehicle: saline) was 98 % of control, the T/C [7] was 98 % of control and the T/C [8] was 104 % of control. For the same molecule, the T/C [9] was 104 % of control.
`O=C(Nc1ccc(F)c(Cl)c1)Oc1cc(=O)oc2ccccc12` was tested, and the T/C [4] was 92 % of control, the T/C [5] was 101 % of control and the T/C [6] was 105 % of control.
In the case of `CCN(CC)c1ccc(NCS(=O)(=O)O)cc1`, the T/C (dose: 50.0 mg/kg/injection, schedule: Q01DX009 (ip), vehicle: saline sonified) is reported as 103 % of control, the T/C (dose: 100.0 mg/kg/injection, schedule: Q01DX009 (ip), vehicle: saline sonified) is reported as 101 % of control and the T/C (dose: 100.0 mg/kg/injection, schedule: Q04DX003 (ip), vehicle: saline) is reported as 110 % of control.
